Data taken from US20230233569A1 (Revolution Medicines, Inc., priority 2020, published 2023).
Where two headings read alike, the source gives them in different places.

Tests used:
KRAS G13C = KRAS G13C (Homo sapiens, UniProt P01116+P62937, G13C); test: Disruption of BRAF RBD interaction with Ras (FRET / MOA assay, with Cyclophilin A); type: biochemical
How it was run: (§1)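 Measured via TR-FRET after 3 h at 25 °C with compound (30 μM top, threefold serial steps, ten concentrations) plus K-Ras, Cyclophilin A and BRAF RBD, followed by 1.5 h with anti-His europium (10 nM) and anti-GST allophycocyanin (50 nM). Signal loss versus DMSO gave IC50.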

KRAS G13D = KRAS G13D (Homo sapiens, UniProt P01116+P62937, G13D); test: as above; type: biochemical
How it was run: as §1

KRAS G12S = KRAS G12S (Homo sapiens, UniProt P01116+P62937, G12S); test: as above; type: biochemical
How it was run: as §1

KRAS WT = KRAS WT (Homo sapiens, UniProt P01116+P62937); test: as above; type: biochemical
How it was run: as §1

NRAS G12C = NRAS G12C (Homo sapiens, UniProt P01111+P62937, G12C); test: as above; type: biochemical
KRAS G12C = KRAS G12C (Homo sapiens, UniProt P01116+P62937, G12C); test: as above; type: biochemical
How it was run: as §1

KRAS G12D = KRAS G12D (Homo sapiens, UniProt P01116+P62937, G12D); test: as above; type: biochemical
How it was run: as §1

KRAS G12V = KRAS G12V (Homo sapiens, UniProt P01116+P62937, G12V); test: as above; type: biochemical
How it was run: as §1

NRAS Q61K = NRAS Q61K (Homo sapiens, UniProt P01111+P62937, Q61K); test: as above; type: biochemical
How it was run: (§2)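 IC50 reflects compound-driven Ras:Cyclophilin A ternary complex displacing BRAF RBD, read as lowered TR-FRET ratio relative to DMSO after Eu anti-His (10 nM) and APC anti-GST (50 nM) detection for 1.5 h. Prior incubation 3 h, 25° C, with 12.5 nM GMPPNP-loaded Ras, 50 nM BRAF RBD, 25 μM Cyclophilin A; top compound 30 μM.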

NRAS WT = NRAS WT (Homo sapiens, UniProt P01111+P62937); test: as above; type: biochemical
How it was run: as §2

NRAS Q61R = NRAS Q61R (Homo sapiens, UniProt P01111+P62937, Q61R); test: as above; type: biochemical
How it was run: as §2

KRAS Q61H = KRAS Q61H (Homo sapiens, UniProt P01116+P62937, Q61H); test: as above; type: biochemical
How it was run: as §2

NCI-H358 (K-Ras G12C) = test: CellTiter-Glo cell viability assay, 5-day treatment; type: cell-based; conditions: Homo sapiens, NCI-H358, 120 h, 5-day treatment; read-out: H358 Cell Viability assay data (K-Ras G12C, IC50)
How it was run: (§3)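 Luminescence read-out after 5 days of compound exposure, with plates first brought to room temperature for roughly 30 minutes. Values are percent of averaged DMSO wells, fitted by four-parameter logistic regression.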

Capan-1 (K-Ras G12V) = test: as above; type: cell-based; conditions: Homo sapiens, CAPAN-1, 120 h, 5-day treatment; read-out: Capan-1 Cell Viability assay data (K-Ras G12V, IC50)
How it was run: as §3

[1] = read-out: KRAS G13C FRET data, IC50
[2] = KRAS G13D, read-out: KRAS G13D FRET data IC50
[3] = read-out: KRAS G12S FRET data, IC50
[4] = KRAS WT, read-out: KRAS WT FRET data IC50
[5] = NRAS G12C, read-out: NRAS G12C FRET data IC50
[6] = read-out: KRAS G12C FRET data, IC50
[7] = read-out: KRAS G12D FRET data, IC50
[8] = KRAS G12V, read-out: KRAS G12V FRET data IC50
[9] = NRAS Q61K, read-out: NRAS Q61K FRET data IC50
[10] = NRAS WT, read-out: NRAS WT FRET data IC50
[11] = NRAS Q61R, read-out: NRAS Q61R FRET data IC50
[12] = KRAS Q61H, read-out: KRAS Q61H FRET data IC50

Chain of NRAS G12C (P01111 whole entry G12C): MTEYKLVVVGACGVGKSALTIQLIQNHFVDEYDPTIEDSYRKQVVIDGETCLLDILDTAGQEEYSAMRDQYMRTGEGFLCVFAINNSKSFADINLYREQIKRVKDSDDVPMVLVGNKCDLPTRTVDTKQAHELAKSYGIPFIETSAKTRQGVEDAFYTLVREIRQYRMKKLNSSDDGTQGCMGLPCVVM
Chain of NRAS G12C (P62937 whole entry): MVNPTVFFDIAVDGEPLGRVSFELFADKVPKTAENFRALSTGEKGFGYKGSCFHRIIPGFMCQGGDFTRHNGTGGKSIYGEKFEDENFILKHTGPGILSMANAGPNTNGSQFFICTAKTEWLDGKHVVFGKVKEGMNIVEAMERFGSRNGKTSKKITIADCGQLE
Chain of NRAS WT (P01111 whole entry): as the sequence (P01111 whole entry G12C) above, with C12G counted along it
Chain of NRAS WT (P62937 whole entry): as the sequence (P62937 whole entry) above
Chain of NRAS Q61K (P01111 whole entry Q61K): as the sequence (P01111 whole entry G12C) above, with C12G, Q61K counted along it
Chain of NRAS Q61K (P62937 whole entry): as the sequence (P62937 whole entry) above
Chain of KRAS G13C (P01116 1-169 isoform P01116-2 G13C): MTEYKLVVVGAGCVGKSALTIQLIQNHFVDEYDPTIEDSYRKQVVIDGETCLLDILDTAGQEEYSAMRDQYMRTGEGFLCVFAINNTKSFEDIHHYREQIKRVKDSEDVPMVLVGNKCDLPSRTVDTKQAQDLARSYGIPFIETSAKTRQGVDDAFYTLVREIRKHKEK
Chain of KRAS G13C (P62937 whole entry): as the sequence (P62937 whole entry) above
Chain of KRAS G13D (P01116 1-169 isoform P01116-2 G13D limits assumed): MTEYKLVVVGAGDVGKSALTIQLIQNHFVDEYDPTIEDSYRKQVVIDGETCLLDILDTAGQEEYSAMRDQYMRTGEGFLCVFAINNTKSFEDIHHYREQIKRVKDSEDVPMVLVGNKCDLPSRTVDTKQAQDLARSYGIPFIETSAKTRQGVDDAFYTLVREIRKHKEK
Chain of KRAS G13D (P62937 whole entry): as the sequence (P62937 whole entry) above
Chain of KRAS G12C (P01116 1-169 isoform P01116-2 G12C): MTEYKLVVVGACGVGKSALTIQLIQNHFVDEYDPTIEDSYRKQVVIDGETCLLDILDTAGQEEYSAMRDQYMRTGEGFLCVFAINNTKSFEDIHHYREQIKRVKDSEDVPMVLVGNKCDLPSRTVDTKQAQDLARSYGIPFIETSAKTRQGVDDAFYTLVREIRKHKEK
Chain of KRAS G12C (P62937 whole entry): as the sequence (P62937 whole entry) above
Chain of KRAS G12D (P01116 1-169 isoform P01116-2 G12D limits assumed): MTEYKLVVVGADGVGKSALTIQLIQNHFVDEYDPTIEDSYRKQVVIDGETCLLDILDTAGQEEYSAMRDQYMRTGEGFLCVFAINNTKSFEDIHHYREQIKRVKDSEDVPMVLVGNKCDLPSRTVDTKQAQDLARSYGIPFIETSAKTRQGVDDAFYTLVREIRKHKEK
Chain of KRAS G12D (P62937 whole entry): as the sequence (P62937 whole entry) above
Chain of KRAS Q61H (P01116 1-169 isoform P01116-2 Q61H limits assumed): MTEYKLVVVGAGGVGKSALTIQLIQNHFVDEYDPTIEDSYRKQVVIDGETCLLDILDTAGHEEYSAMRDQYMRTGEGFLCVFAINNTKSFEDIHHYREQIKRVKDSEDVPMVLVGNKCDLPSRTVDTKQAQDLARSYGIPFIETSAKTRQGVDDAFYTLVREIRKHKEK
Chain of KRAS Q61H (P62937 whole entry): as the sequence (P62937 whole entry) above
Chain of KRAS G12V (P01116 1-169 isoform P01116-2 G12V limits assumed): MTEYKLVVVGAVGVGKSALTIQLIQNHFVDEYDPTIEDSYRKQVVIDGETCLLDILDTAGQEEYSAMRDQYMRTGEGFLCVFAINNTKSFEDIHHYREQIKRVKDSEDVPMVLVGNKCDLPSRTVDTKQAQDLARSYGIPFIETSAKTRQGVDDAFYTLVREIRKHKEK
Chain of KRAS G12V (P62937 whole entry): as the sequence (P62937 whole entry) above
Chain of KRAS G12S (P01116 1-169 isoform P01116-2 G12S limits assumed): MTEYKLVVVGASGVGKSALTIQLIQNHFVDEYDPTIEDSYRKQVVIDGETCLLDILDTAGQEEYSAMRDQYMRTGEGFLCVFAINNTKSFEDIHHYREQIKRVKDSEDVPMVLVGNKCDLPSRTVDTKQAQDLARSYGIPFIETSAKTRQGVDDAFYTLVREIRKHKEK
Chain of KRAS G12S (P62937 whole entry): as the sequence (P62937 whole entry) above
Chain of NRAS Q61R (P01111 whole entry Q61R): as the sequence (P01111 whole entry G12C) above, with C12G, Q61R counted along it
Chain of NRAS Q61R (P62937 whole entry): as the sequence (P62937 whole entry) above
Chain of KRAS WT (P01116 1-169 isoform P01116-2 limits assumed): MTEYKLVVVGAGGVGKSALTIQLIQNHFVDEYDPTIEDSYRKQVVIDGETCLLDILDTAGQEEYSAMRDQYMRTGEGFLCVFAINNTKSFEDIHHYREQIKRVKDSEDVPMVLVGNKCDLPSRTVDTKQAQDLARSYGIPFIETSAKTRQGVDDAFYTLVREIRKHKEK
Chain of KRAS WT (P62937 whole entry): as the sequence (P62937 whole entry) above

Row | Compound | IC50 (NCI-H358 (K-Ras G12C)) | IC50 (Capan-1 (K-Ras G12V)) | IC50 (KRAS G13C; [1]) | IC50 (KRAS G13D; [2]) | IC50 (KRAS G12S; [3]) | IC50 (KRAS WT; [4]) | IC50 (NRAS G12C; [5]) | IC50 (KRAS G12C; [6]) | IC50 (KRAS G12D; [7]) | IC50 (KRAS G12V; [8]) | IC50 (NRAS Q61K; [9]) | IC50 (NRAS WT; [10]) | IC50 (NRAS Q61R; [11]) | IC50 (KRAS Q61H; [12]) | other results
1 | CCn1c(-c2cccnc2[C@H](C)OC)c2c3cc(ccc31)-c1csc(n1)C[C@H](NC(=O)[C@H](C(C)C)N(C)C(=O)N1CCC[C@@H](N(C)C)CC1)C(=O)N1CCC[C@H](N1)C(=O)OCC(C)(C)C2 [Example A494] | 0.01 to 0.1 µM | 0.01 to 0.1 µM | – | – | – | – | – | – | – | – | – | – | – | – | IC50 (KRAS G13C; KRAS G13C FRET data, IC50): 0.1 to 1 µM; IC50 (KRAS G13D; KRAS G13D FRET data IC50, KRAS G13D): 0.1 to 1 µM; IC50 (KRAS G12S; KRAS G12S FRET data, IC50): 0.01 to 0.1 µM; IC50 (KRAS WT; KRAS WT FRET data IC50, KRAS WT): 0.01 to 0.1 µM; IC50 (NRAS G12C; NRAS G12C FRET data IC50, NRAS G12C): 0.01 to 0.1 µM; IC50 (KRAS G12C; KRAS G12C FRET data, IC50): 0.01 to 0.1 µM; IC50 (KRAS G12D; KRAS G12D FRET data, IC50): 0.01 to 0.1 µM; IC50 (KRAS G12V; KRAS G12V FRET data IC50, KRAS G12V): 0.1 to 1 µM; IC50 (NRAS Q61K; NRAS Q61K FRET data IC50, NRAS Q61K): 0.01 to 0.1 µM; IC50 (NRAS WT; NRAS WT FRET data IC50, NRAS WT): 0.01 to 0.1 µM; IC50 (NRAS Q61R; NRAS Q61R FRET data IC50, NRAS Q61R): 0.01 to 0.1 µM; IC50 (KRAS Q61H; KRAS Q61H FRET data IC50, KRAS Q61H): 0.01 to 0.1 µM
2 | CCn1c(-c2cc(C3CCN(C)CC3)cnc2[C@H](C)OC)c2c3cc(ccc31)-c1csc(n1)C[C@H](NC(=O)[C@H](C(C)C)N(C)C(=O)N1CCOCC1)C(=O)N1CCC[C@H](N1)C(=O)OCC(C)(C)C2 (atropisomer, axis not shown) [Example A505] | < 0.01 µM | < 0.01 µM | 0.1 to 1 µM | 0.1 to 1 µM | 0.1 to 1 µM | 0.01 to 0.1 µM | 0.01 to 0.1 µM | 0.01 to 0.1 µM | 0.1 to 1 µM | 0.1 to 1 µM | 0.01 to 0.1 µM | 0.01 to 0.1 µM | 0.01 to 0.1 µM | 0.01 to 0.1 µM | –
3 | CCn1c(-c2cccnc2[C@H](C)OC)c2c3cc(ccc31)-c1csc(n1)C[C@H](NC(=O)[C@H](C(C)C)N(C)C(=O)N1CCC3(CN(C)C3)C1)C(=O)N1CCC[C@H](N1)C(=O)OCC(C)(C)C2 (atropisomer, axis not shown) [Example A503] | 0.01 to 0.1 µM | 0.01 to 0.1 µM | 0.1 to 1 µM | 0.1 to 1 µM | 0.01 to 0.1 µM | 0.01 to 0.1 µM | 0.01 to 0.1 µM | 0.01 to 0.1 µM | 0.1 to 1 µM | 0.1 to 1 µM | 0.01 to 0.1 µM | 0.01 to 0.1 µM | 0.01 to 0.1 µM | 0.01 to 0.1 µM | –
4 | CCn1c(-c2cccnc2[C@H](C)OC)c2c3cc(ccc31)-c1csc(n1)C[C@H](NC(=O)[C@H](C(C)C)N(C)C(=O)N1CC3(C1)CS(=O)(=O)CCN3C)C(=O)N1CCC[C@H](N1)C(=O)OCC(C)(C)C2 [Example A482] | 0.1 to 1 µM | 0.1 to 1 µM | 1 to 10 µM | 1 to 10 µM | 1 to 10 µM | 1 to 10 µM | 0.1 to 1 µM | 1 to 10 µM | > 10 µM | 1 to 10 µM | 0.1 to 1 µM | 1 to 10 µM | 1 to 10 µM | 0.1 to 1 µM | –
5 | CCn1c(-c2cccnc2[C@H](C)OC)c2c3cc(ccc31)-c1cc(O)cc(c1)C[C@H](NC(=O)[C@H](C(C)C)N(C)C(=O)C1CCc3ccccc3N1)C(=O)N1CCC[C@H](N1)C(=O)OCC(C)(C)C2 (stereo partly shown) [Example A226] | 0.1 to 1 µM | 0.1 to 1 µM | 0.01 to 0.1 µM | 0.1 to 1 µM | 0.1 to 1 µM | 0.1 to 1 µM | 0.1 to 1 µM | 0.01 to 0.1 µM | 1 to 10 µM | 0.1 to 1 µM | 0.1 to 1 µM | 0.1 to 1 µM | 0.1 to 1 µM | 0.01 to 0.1 µM | –
6 | CCn1c(-c2cccnc2[C@H](C)OC)c2c3cc(ccc31)-c1csc(n1)C[C@H](NC(=O)[C@H](C(C)C)N(C)C(=O)N1[C@H](C)CN(C)C[C@H]1C)C(=O)N1CCC[C@H](N1)C(=O)OCC(C)(C)C2 [Example A610] | 0.1 to 1 µM | 0.1 to 1 µM | 0.1 to 1 µM | 0.1 to 1 µM | 0.1 to 1 µM | 0.1 to 1 µM | 0.1 to 1 µM | 0.1 to 1 µM | 0.1 to 1 µM | 0.1 to 1 µM | 0.1 to 1 µM | 0.1 to 1 µM | 0.1 to 1 µM | 0.01 to 0.1 µM | –
7 | CCn1c(-c2cccnc2[C@H](C)OC)c2c3cc(ccc31)-c1csc(n1)C[C@H](NC(=O)[C@H](C(C)C)N(C)C(=O)N1CC(CO)C1)C(=O)N1CCC[C@H](N1)C(=O)OCC(C)(C)C2 (atropisomer, axis not shown) [Example A356] | < 0.01 µM | 0.01 to 0.1 µM | 0.1 to 1 µM | 0.1 to 1 µM | 0.1 to 1 µM | 0.1 to 1 µM | 0.01 to 0.1 µM | 0.01 to 0.1 µM | 0.1 to 1 µM | 0.1 to 1 µM | 0.01 to 0.1 µM | 0.01 to 0.1 µM | 0.01 to 0.1 µM | 0.01 to 0.1 µM | –
8 | CCn1c(-c2cccnc2[C@H](C)OC)c2c3cc(ccc31)-c1csc(n1)C[C@H](NC(=O)[C@H](C(C)C)N(C)C(=O)O[C@H]1CCOC1)C(=O)N1CCC[C@H](N1)C(=O)OCC(C)(C)C2 [Example A210] | 0.1 to 1 µM | 0.01 to 0.1 µM | 1 to 10 µM | 1 to 10 µM | 1 to 10 µM | 0.1 to 1 µM | 0.1 to 1 µM | 0.1 to 1 µM | 1 to 10 µM | 1 to 10 µM | 0.1 to 1 µM | 0.1 to 1 µM | 0.1 to 1 µM | 0.1 to 1 µM | –
9 | CCn1c(-c2cccnc2[C@H](C)OC)c2c3cc(ccc31)-c1csc(n1)C[C@H](NC(=O)[C@H](C(C)C)N(C)C(=O)N1CCC13CCOCC3)C(=O)N1CCC[C@H](N1)C(=O)OCC(C)(C)C2 (atropisomer, axis not shown) [Example A601] | 0.01 to 0.1 µM | 0.01 to 0.1 µM | 0.1 to 1 µM | 0.1 to 1 µM | 0.1 to 1 µM | 0.1 to 1 µM | 0.01 to 0.1 µM | 0.01 to 0.1 µM | 0.1 to 1 µM | 0.1 to 1 µM | 0.01 to 0.1 µM | 0.1 to 1 µM | 0.01 to 0.1 µM | 0.01 to 0.1 µM | –
10 | CCn1c(-c2cccnc2[C@H](C)OC)c2c3cc(ccc31)-c1csc(n1)C[C@H](NC(=O)[C@H](C(C)C)N(C)C(=O)N1CCN(C(=O)CN(C)C)CC1)C(=O)N1CCC[C@H](N1)C(=O)OCC(C)(C)C2 (atropisomer, axis not shown) [Example A290] | 0.01 to 0.1 µM | 0.01 to 0.1 µM | 0.1 to 1 µM | 0.1 to 1 µM | 0.1 to 1 µM | 0.01 to 0.1 µM | 0.01 to 0.1 µM | 0.01 to 0.1 µM | 0.1 to 1 µM | 0.1 to 1 µM | 0.01 to 0.1 µM | 0.01 to 0.1 µM | 0.1 to 1 µM | 0.01 to 0.1 µM | –
11 | CCn1c(-c2cccnc2[C@H](C)OC)c2c3cc(ccc31)-c1csc(n1)C[C@H](NC(=O)[C@H](C(C)C)N(C)C(=O)N1CC(C)(OC)C1)C(=O)N1CCC[C@H](N1)C(=O)OCC(C)(C)C2 [Example A299] | 0.01 to 0.1 µM | 0.1 to 1 µM | 1 to 10 µM | 1 to 10 µM | 1 to 10 µM | 0.1 to 1 µM | 0.1 to 1 µM | 0.1 to 1 µM | 1 to 10 µM | 1 to 10 µM | 0.1 to 1 µM | 0.1 to 1 µM | 0.1 to 1 µM | 0.1 to 1 µM | –
